# In ChEMBL document CHEMBL4483862, “Open-source discovery of chemical leads for next-generation chemoprotective antimalarials” (2018):
# System: Plasmodium berghei
# Experiment: Luciferase/luciferin-expressing antifolate-resistant parasites were used to infect a culture of HepG2 cells that were pre-incubated with compounds. Infected hepatocytes emit light due to the luciferase reaction. Assay results are presented as the percent inhibition of light emission compared to control. […]
# Assay type: functional
# Settings: sporozoite; for IC90: read-out: LUCIFERASE INFECTION ASSAY - IC90
SMILES,IC90 [µM],other results
COc1ccc(CCN2C(=O)C=CC2=O)cc1OC,5.29,"IC50 (FFLUC_HILL_SLOPE 0.51, FFLUC_R_SQUARED 0.0256, HEPG2TOX_HILL_SLOPE 14.8, HEPG2TOX_R_SQUARED 0.93, PBLUC_HILL_SLOPE 12.3, PBLUC_R_SQUARED 0.48, read-out: LUCIFERASE INFECTION ASSAY - IC50): 4.42 µM"
Cc1cc(C)n(-c2ccc(S(N)(=O)=O)cc2)n1,> 13.1,"IC50 (FFLUC_HILL_SLOPE 0.55, FFLUC_R_SQUARED 0.0304, read-out: LUCIFERASE INFECTION ASSAY - IC50): > 13.1 µM"
c1csc(-c2cnc3sc(NCCc4ccncc4)nn23)c1,> 10.1,"IC50 (FFLUC_HILL_SLOPE 0.665, FFLUC_R_SQUARED 0.0104, HEPG2TOX_HILL_SLOPE 4.1, HEPG2TOX_R_SQUARED 0.712, read-out: LUCIFERASE INFECTION ASSAY - IC50): > 10.1 µM"
O=C(Nc1ccc(OC(F)(F)F)cc1)Nc1cncc(C(F)(F)F)c1,6.72,"IC50 (FFLUC_HILL_SLOPE 0.707, FFLUC_R_SQUARED 0.204, PBLUC_HILL_SLOPE 4.06, PBLUC_R_SQUARED 0.292, read-out: LUCIFERASE INFECTION ASSAY - IC50): 3.91 µM"
Cc1ccnc(NC(=O)c2ccc(C3SCCCS3)cc2)c1,1.57,"IC50 (FFLUC_HILL_SLOPE 0.47, FFLUC_R_SQUARED 0.912, PBLUC_HILL_SLOPE 0.485, PBLUC_R_SQUARED 0.898, read-out: LUCIFERASE INFECTION ASSAY - IC50): 0.0169 µM"
C(=N\Nc1ncnc2sc(-c3ccccc3)cc12)/c1sc(N2CCCCC2)nc1-c1cccs1,1.21,"IC50 (FFLUC_HILL_SLOPE 0.658, FFLUC_R_SQUARED 0.126, HEPG2TOX_HILL_SLOPE 2.14, HEPG2TOX_R_SQUARED 0.958, PBLUC_HILL_SLOPE 24.1, PBLUC_R_SQUARED 0.279, read-out: LUCIFERASE INFECTION ASSAY - IC50): 1.11 µM"
CC(NS(=O)(=O)c1ccc(-n2ncc(Cl)c(Cl)c2=O)cc1)c1ccc2ccccc2c1 (stereo not given),3.82,"IC50 (FFLUC_HILL_SLOPE 0.605, FFLUC_R_SQUARED 0.525, HEPG2TOX_HILL_SLOPE 11.4, HEPG2TOX_R_SQUARED 0.983, PBLUC_HILL_SLOPE 12.9, PBLUC_R_SQUARED 0.58, read-out: LUCIFERASE INFECTION ASSAY - IC50): 3.22 µM"
CCOC(=O)C1=C(C)N(c2ccc(Cl)cc2)C(=O)NC1c1c(F)cccc1Cl (stereo not given),> 10,"IC50 (FFLUC_HILL_SLOPE 0.633, FFLUC_R_SQUARED 0.184, HEPG2TOX_HILL_SLOPE 1.11, HEPG2TOX_R_SQUARED 0.991, PBLUC_HILL_SLOPE 1.36, PBLUC_R_SQUARED 0.55, read-out: LUCIFERASE INFECTION ASSAY - IC50): 3.38 µM"
CC12C/C(=C\c3ccccc3)C(O)CC1CCC1C2CCC2(C)C1CC[C@]2(C)O (stereo not given in full),> 8.36,"IC50 (FFLUC_HILL_SLOPE 0.541, FFLUC_R_SQUARED 0.353, PBLUC_HILL_SLOPE 12.3, PBLUC_R_SQUARED 0.0329, read-out: LUCIFERASE INFECTION ASSAY - IC50): > 8.36 µM"
NC(=O)NC(CC(=O)NCc1cccs1)c1cccc(Oc2ccccc2)c1 (stereo not given),> 10,"IC50 (FFLUC_HILL_SLOPE 0.589, FFLUC_R_SQUARED 0.0522, PBLUC_HILL_SLOPE 12.1, PBLUC_R_SQUARED 0.469, read-out: LUCIFERASE INFECTION ASSAY - IC50): 9.25 µM"
Clc1c(-c2c(-c3ccccc3)[nH]c3ccccc23)nc2ccccc2c1-c1ccccc1,8.61,"IC50 (FFLUC_HILL_SLOPE 0.689, FFLUC_R_SQUARED 0.515, HEPG2TOX_HILL_SLOPE 2.63, HEPG2TOX_R_SQUARED 0.531, PBLUC_HILL_SLOPE 2.99, PBLUC_R_SQUARED 0.588, read-out: LUCIFERASE INFECTION ASSAY - IC50): 4.13 µM"
COc1cc(-c2cnc3cnc(-c4ccsc4)cn23)cc(OC)c1OC,1.45,"IC50 (FFLUC_HILL_SLOPE 0.573, FFLUC_R_SQUARED 0.0155, HEPG2TOX_HILL_SLOPE 1.65, HEPG2TOX_R_SQUARED 0.878, PBLUC_HILL_SLOPE 3.42, PBLUC_R_SQUARED 0.766, read-out: LUCIFERASE INFECTION ASSAY - IC50): 0.761 µM"
CCc1cccc(CC)c1N1C(=O)/C(=C\c2ccc(C(C)(C)C)cc2)N(C)C1=S,> 10,"IC50 (FFLUC_HILL_SLOPE 0.556, FFLUC_R_SQUARED 0.412, PBLUC_HILL_SLOPE 2.98, PBLUC_R_SQUARED 0.687, read-out: LUCIFERASE INFECTION ASSAY - IC50): 5.42 µM"
O=C(Nc1nc(-c2ccccn2)cs1)C1CCCN(C(=O)c2ccc(Cl)cc2)C1 (stereo not given),> 10,"IC50 (FFLUC_HILL_SLOPE 0.539, FFLUC_R_SQUARED 0.289, HEPG2TOX_HILL_SLOPE 0.153, HEPG2TOX_R_SQUARED 0.318, read-out: LUCIFERASE INFECTION ASSAY - IC50): > 10 µM"
COC(=O)[C@@H](NC(=O)Nc1ccc(-c2nc3ccccc3s2)cc1)C(C)C,> 8.61,"IC50 (FFLUC_HILL_SLOPE 0.533, FFLUC_R_SQUARED 0.87, PBLUC_HILL_SLOPE 0.528, PBLUC_R_SQUARED 0.783, read-out: LUCIFERASE INFECTION ASSAY - IC50): 0.264 µM"
COc1cccc(-c2cnc(N)c(-c3ccc(O)c(OC)c3)c2)c1,7.28,"IC50 (FFLUC_HILL_SLOPE 0.591, FFLUC_R_SQUARED 0.281, PBLUC_HILL_SLOPE 3.73, PBLUC_R_SQUARED 0.478, read-out: LUCIFERASE INFECTION ASSAY - IC50): 4.04 µM"
CSc1sc(-c2n[nH]cc2Br)c2c1C(=O)CC(C)(C)C2,> 8.89,"IC50 (FFLUC_HILL_SLOPE 0.501, FFLUC_R_SQUARED 0.129, read-out: LUCIFERASE INFECTION ASSAY - IC50): > 8.89 µM"
Cc1c(C)n(CCCO)c2ncn3nc(-c4ccccc4O)nc3c12,0.862,"IC50 (FFLUC_HILL_SLOPE 0.508, FFLUC_R_SQUARED 0.752, HEPG2TOX_HILL_SLOPE 10.5, HEPG2TOX_R_SQUARED 0.849, PBLUC_HILL_SLOPE 1, PBLUC_R_SQUARED 0.894, read-out: LUCIFERASE INFECTION ASSAY - IC50): 0.0964 µM"
Cc1ccc(NS(=O)(=O)c2ccc(C(=O)Nc3ncccc3O)cc2)cc1,0.462,"IC50 (FFLUC_HILL_SLOPE 0.564, FFLUC_R_SQUARED 0.118, HEPG2TOX_HILL_SLOPE 3.99, HEPG2TOX_R_SQUARED 0.784, PBLUC_HILL_SLOPE 9.26, PBLUC_R_SQUARED 0.767, read-out: LUCIFERASE INFECTION ASSAY - IC50): 0.364 µM"
Cc1oc(-c2ccccc2)nc1C(=O)N(C)CC(=O)Nc1ccc(N2CCOCC2)cc1,> 10,"IC50 (FFLUC_HILL_SLOPE 0.476, FFLUC_R_SQUARED 0.109, HEPG2TOX_HILL_SLOPE 11.6, HEPG2TOX_R_SQUARED 0.88, read-out: LUCIFERASE INFECTION ASSAY - IC50): > 10 µM"
Cc1cnc(NC(=O)c2ccc(CN3CCCCC3)cc2)s1,> 10,"IC50 (FFLUC_HILL_SLOPE 0.622, FFLUC_R_SQUARED 0.84, HEPG2TOX_HILL_SLOPE 8.37, HEPG2TOX_R_SQUARED 0.336, PBLUC_HILL_SLOPE 1, PBLUC_R_SQUARED 0.657, read-out: LUCIFERASE INFECTION ASSAY - IC50): 1.28 µM"
Clc1ccccc1-c1cnc2sc(NCc3cccs3)nn12,> 9.51,"IC50 (FFLUC_HILL_SLOPE 0.509, FFLUC_R_SQUARED 0.232, read-out: LUCIFERASE INFECTION ASSAY - IC50): > 9.51 µM"
Cn1nc(-c2ccc(-c3ccnc(SCC(=O)c4ccccc4)n3)s2)cc1C(F)(F)F,> 7.17,"IC50 (FFLUC_HILL_SLOPE 0.544, FFLUC_R_SQUARED 0.175, read-out: LUCIFERASE INFECTION ASSAY - IC50): > 7.17 µM"
COc1ccc(-c2cc(-c3ccc4ccccc4c3)n(C)c2-c2ccc(F)cc2)cc1,> 8.1,"IC50 (FFLUC_HILL_SLOPE 0.642, FFLUC_R_SQUARED 0.523, PBLUC_HILL_SLOPE 1.6, PBLUC_R_SQUARED 0.413, read-out: LUCIFERASE INFECTION ASSAY - IC50): 2.69 µM"
COc1ccc2c(C(=O)N/N=C/c3cc(Br)c4ccccc4c3O)cccc2c1,3.64,"IC50 (FFLUC_HILL_SLOPE 0.529, FFLUC_R_SQUARED 0.712, HEPG2TOX_HILL_SLOPE 1.8, HEPG2TOX_R_SQUARED 0.756, PBLUC_HILL_SLOPE 12.3, PBLUC_R_SQUARED 0.402, read-out: LUCIFERASE INFECTION ASSAY - IC50): 3.05 µM"
O=C(Nc1cccc(S(=O)(=O)N2CCCCC2)c1)c1cn(-c2ccccc2C(F)(F)F)nn1,> 10,"IC50 (FFLUC_HILL_SLOPE 0.647, FFLUC_R_SQUARED 0.258, read-out: LUCIFERASE INFECTION ASSAY - IC50): > 10 µM"
C/N=c1\scc(-c2ccco2)n1/N=C/c1sccc1C,1.19,"IC50 (FFLUC_HILL_SLOPE 0.471, FFLUC_R_SQUARED 0.601, PBLUC_HILL_SLOPE 1.29, PBLUC_R_SQUARED 0.771, read-out: LUCIFERASE INFECTION ASSAY - IC50): 0.216 µM"
COc1cccc(C2c3sc(=O)[nH]c3SC3C4CCC(C4)C23)c1O (stereo not given),> 9.13,"IC50 (FFLUC_HILL_SLOPE 0.571, FFLUC_R_SQUARED 0.432, read-out: LUCIFERASE INFECTION ASSAY - IC50): > 9.13 µM"
CC(C)c1nc(N2CCN(C)CC2)c(C#N)c2c1CCCC2,> 11.1,"IC50 (FFLUC_HILL_SLOPE 0.534, FFLUC_R_SQUARED 0.16, read-out: LUCIFERASE INFECTION ASSAY - IC50): > 11.1 µM"
N#Cc1nn(-c2cccc(Cl)c2)c(=O)cc1Cl,11.9,"IC50 (FFLUC_HILL_SLOPE 0.646, FFLUC_R_SQUARED 0.469, HEPG2TOX_HILL_SLOPE 5.31, HEPG2TOX_R_SQUARED 0.933, PBLUC_HILL_SLOPE 9.19, PBLUC_R_SQUARED 0.334, read-out: LUCIFERASE INFECTION ASSAY - IC50): 9.36 µM"
